PubChem BioAssay (NCI)
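Dose response: 5 concentrations. Exposure: 48 h. Format: 96-well plates. Endpoint: linear interpolation; highest concentration if not reached. At the GI50, growth is halved. TGI is the concentration that stops growth completely.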

Legend:
Test in all cases: DTP human tumour cell line panel, 48 h
[1] = test system: 786-0 renal
[2] = test system: A498 renal
[3] = test system: ACHN renal
[4] = test system: CAKI-1 renal
[5] = test system: EKVX NSCLC
[6] = test system: HOP-92 NSCLC
[7] = test system: MDA-MB-435
[8] = test system: OVCAR-3 ovarian
[9] = test system: SK-MEL-5 melanoma
[10] = test system: SNB-19 CNS

Row | Compound | TGI [1] [µM] | TGI [2] [µM] | TGI [3] [µM] | TGI [4] [µM] | TGI [5] [µM] | TGI [6] [µM] | TGI [7] [µM] | TGI [8] [µM] | TGI [9] [µM] | TGI [10] [µM] | GI50 [2] [µM]
1 | COCN1CCN=c2c1c1c3c(c4ccccc4n23)CCC1 | > 100 | > 100 | > 100 | > 100 | > 100 | > 100 | > 100 | > 100 | > 100 | > 100 | –
2 | COC(=O)c1ccc(CCc2cc(O)ccc2O)cc1 | 18.4 | > 96.7 | 37.9 | 12.9 | 32.4 | 26.4 | 21.7 | 12.1 | 25.7 | > 62.7 | –
3 | C[N+](C)([O-])CCCNc1c2ccccc2nc2cccc([N+](=O)[O-])c12 | 0.872 | 0.545 | 3.74 | 11.6 | 0.901 | 0.806 | 0.647 | 5.65 | 0.327 | 3.2 | –
4 | Cc1ccc(NC(=S)Nc2c(C)n(C)n(-c3ccccc3)c2=O)cc1 | > 100 | > 100 | > 100 | > 100 | > 100 | > 100 | > 100 | > 100 | > 100 | > 100 | –
5 | COc1ccc(Oc2nc3ccc(C(F)(F)F)cc3nc2-c2ccccc2)cc1 | > 100 | > 100 | > 100 | > 100 | > 100 | > 100 | > 100 | > 100 | > 100 | > 100 | –
6 | COc1ccc(/C=C2\CC3C4CC=C5C[C@@H](O)CC[C@]5(C)C4CC[C@]3(C)\C2=N\O)cc1OC (stereo partly specified) | > 100 | 86.2 | 36.9 | > 100 | > 100 | > 100 | > 100 | 8.74 | 45.1 | > 100 | –
7 | O=C(Nc1c(Cl)cc([N+](=O)[O-])cc1Cl)C(=O)C1C(=O)NC(=S)NC1=O | > 100 | > 100 | > 100 | > 100 | > 100 | > 100 | > 100 | > 100 | > 100 | > 100 | –
8 | CC(NC(=O)OCc1ccccc1)NC(=O)C(CC(=O)OC(C)(C)C)NC(=O)OC(C)(C)C (stereo unspecified) | > 100 | > 100 | > 100 | > 100 | > 100 | > 100 | > 100 | > 100 | > 100 | > 100 | –
9 | CC1CC[C@@]2(OC1)O[C@H]1C[C@H]3[C@@H]4CC[C@H]5C[C@@H](OC6OC(CO)C(OC7OC(CO)C(OC8OC(CO)C(O)C(OC9OC(C)C(OC%10OC(C)C(O)C(O)C%10O)C(O)C9O)C8OC8OCC(O)C(O)C8O)C(O)C7O)C(O)C6O)CC[C@]5(C)[C@H]4CC(=O)[C@]3(C)[C@H]1[C@@H]2C (stereo partly specified) | 54.9 | 32.1 | 30.9 | 29.3 | 40.4 | 38.2 | 35.7 | 42.3 | 30.4 | 39.4 | –
10 | C=CC(C)(C)N[C@@H](C(=O)N1CCC[C@H]1c1nc(-c2nc(C(=O)OCC=C(C)C)c(C)o2)c(C)o1)C(C)C | 44.5 | 39.4 | 88.3 | > 100 | > 100 | 35 | 39.8 | 59.5 | 52 | 55 | –
11 | CCCC(CC)c1c(O)c(O)c(C(CC)CCC)c(C(CC)CCC)c1C(CC)CCC (stereo unspecified) | > 10 | > 10 | > 10 | > 10 | > 10 | > 10 | > 10 | > 10 | > 10 | > 10 | –
12 | CN1C/C(=C\c2ccc(Cl)cc2)C(=O)/C(=C/c2ccc(Cl)cc2)C1 | 1.26 | 3.2 | > 25.3 | > 27.6 | > 90.6 | > 100 | > 100 | 6.57 | > 26.5 | > 100 | –
13 | CCOC(=O)c1c2c(n(-c3ccc(OC)cc3)c1C)C(=O)C(=O)c1ccccc1-2 | 3.5 | 3.97 | 2.36 | 2.82 | 4.09 | 3.98 | 0.351 | 1.34 | 2.59 | 19 | 1.76
14 | O=C1CCC2(CC1CCSc1ccccc1)OCCO2 (stereo unspecified) | > 100 | > 100 | > 100 | > 100 | > 100 | > 100 | > 100 | > 100 | > 100 | > 100 | –
15 | COc1cc(/C=C2\N=C(c3ccccc3)N(/N=C3\C(=O)Nc4ccccc43)C2=O)cc(OC)c1OC | > 100 | > 100 | > 100 | > 100 | > 100 | > 100 | > 100 | > 100 | > 100 | > 100 | –
16 | O=c1[nH]c(=O)n(COCc2ccccc2)c2ccc(Br)cc12 | > 100 | > 100 | > 100 | > 100 | > 100 | > 100 | > 100 | > 100 | > 100 | > 100 | –
17 | O=C1C=C2CO[C@H]3OC[C@H](O)[C@@H]1[C@@H]23 | > 100 | > 100 | > 100 | 89 | > 100 | > 100 | > 100 | > 100 | > 100 | > 100 | –
